Assay results taken from article PMC5104769, “Concentration-Dependent Dual Mode of Zn Action at Serotonin 5-HT1A Receptors: In Vitro and In Vivo Studies” (Molecular neurobiology, 2015).

What was measured:
[1] = target: T1, human 5-HT1AR stably expressed in HEK293 cells (Homo sapiens, UniProt P08908); test: Saturation binding of [3H]-8-OH-DPAT in the absence and presence of Zn; conditions: Zn vs [3H]-8-OH-DPAT, nonlinear regression of saturation data, equation 1
T1 construct: The full-length human 5HTR1A complementary DNA (cDNA); membranes prepared from the cells
T1 sequence (P08908 1-422): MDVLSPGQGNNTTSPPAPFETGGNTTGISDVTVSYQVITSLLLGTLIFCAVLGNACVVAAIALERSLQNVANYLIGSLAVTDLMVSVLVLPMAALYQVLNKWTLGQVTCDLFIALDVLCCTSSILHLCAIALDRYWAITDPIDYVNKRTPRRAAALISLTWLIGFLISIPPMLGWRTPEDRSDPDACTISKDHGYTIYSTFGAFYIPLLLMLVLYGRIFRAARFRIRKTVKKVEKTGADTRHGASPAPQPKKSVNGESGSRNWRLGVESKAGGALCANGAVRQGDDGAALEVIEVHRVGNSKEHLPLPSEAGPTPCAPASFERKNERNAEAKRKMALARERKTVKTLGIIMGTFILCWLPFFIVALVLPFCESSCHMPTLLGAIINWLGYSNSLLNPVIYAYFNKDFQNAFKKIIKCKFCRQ
Method: The full-length human 5HTR1A complementary DNA (cDNA), which was cloned into the mammalian expression vector pcDNA3.1(+), was obtained from the Missouri S&T cDNA Resource Center (www.cdna.org). The receptor cDNA was stably transfected into human embryonic kidney cells (HEK293, ATCC) with the use of Lipofectamine 2000 (Invitrogen).
Cell pellets were thawed and homogenized in 20 volumes of 50 mM Tris–HCl buffer (pH 7.7) containing 0.1 mM EDTA and 10 mM MgCl2, using an Ultra Turrax tissue homogenizer. The pellets were then centrifuged twice at 35,000g for 20 min at 4 °C, with incubation for 15 min at 37 °C in between centrifugations. Membranes were aliquoted in tubes. Membrane protein concentrations were determined using the Pierce™ Coomassie (Bradford) Protein Assay Kit, with bovine serum albumin (BSA) as a standard.
The incubation buffer consisted of 50 mM Tris–HCl (pH 7.7), 10 mM MgCl2, 10 mM pargyline and 0.1 % ascorbic acid. Radioligand binding assays were performed by incubating 30 μg of protein of the membrane suspension in 96-well microtitre plates for 60 min at room temperature with shaking, in a total volume of 200 μl. The binding reactions were stopped by filtration through GF/C Unifilter plates using a harvester (PerkinElmer). The plate filters were dried, and 20 μl of Ultima Gold MV (PerkinElmer) was added. Radioactivity was measured using a MicroBeta TriLux counter (PerkinElmer).
All experiments were performed in triplicate, and the results were obtained from at least three independent experiments. The data are expressed as the mean±S.D. (standard deviation). The experimental data were analysed using GraphPad Prism 5.1 for Windows (GraphPad Software, San Diego California USA, www.graphpad.com).

[2] = target: T1, human 5-HT1AR stably expressed in HEK293 cells; test: Association and dissociation kinetic assays of [3H]-8-OH-DPAT; type: binding
Method: Non-specific binding was defined by the addition of 10 μM serotonin. The amount of radioligand bound to the receptor was measured at different time intervals during a total incubation of 60 min in the absence or presence of 10 and 500 μM ZnCl2. For the dissociation assay, after incubating the membranes with radioligand for 60 min to achieve equilibrium, serotonin (10 μM), either alone or together with 10 or 500 μM of ZnCl2, was added, and the specifically bound radioligand was measured after incubations of different durations (from 0 to 60 min), which were terminated by rapid filtration.

cooperativity factor α [1]: 0.37 | effect on association rate of [3H]-8-OH-DPAT ([2]; 10 μM of Zn ions): small increase in the association rate | effect on association rate of [3H]-8-OH-DPAT ([2]; 500 μM Zn): no effect on the kon values | effect on dissociation rate of [3H]-8-OH-DPAT ([2]; high Zn concentration (500 μM)): both phases were significantly reduced
Compound: [Zn+2] [Zn, Zinc]
effect on dissociation rate of [3H]-8-OH-DPAT ([2]; low Zn concentration (10 μM)): disappearance of the fast radioligand dissociation rate
